Activity calls are given as the source filed them. The calls are words filed in the database; no cut-off is given here.
Assays:
Rattus norvegicus [1] = experiment: Cocaine discrimination in ip dosed CD Albino rat; type: functional
Rattus norvegicus [2] = experiment: Drug discrimination effect in CD Albino rat assessed as percent of rat choosing cocaine lever at 1 mg/kg, ip; type: functional; conditions: route intraperitoneal
Rattus norvegicus [3] = experiment: Drug discrimination effect in CD Albino rat assessed as percent of rat choosing cocaine lever at 1.7 mg/kg, ip; type: functional; conditions: route intraperitoneal
Rattus norvegicus [4] = experiment: Drug discrimination effect in CD Albino rat assessed as percent of rat choosing cocaine lever at 3 mg/kg, ip; type: functional; conditions: route intraperitoneal
Rattus norvegicus [5] = experiment: Drug discrimination effect in CD Albino rat assessed as percent of rat choosing cocaine lever at 5.6 mg/kg, ip; type: functional; conditions: route intraperitoneal
Rattus norvegicus [6] = experiment: Drug discrimination effect in CD Albino rat assessed as percent of rat choosing cocaine lever at 10 mg/kg, ip; type: functional; conditions: route intraperitoneal
Mus musculus [7] = experiment: Activity in CD1 mouse assessed as slight or intermittent hyperactivity at 100 mg/kg, ip after 4 hrs; type: functional, organism-based; design: dose 100 mg/kg
[8] = target: Sodium-dependent dopamine transporter (Homo sapiens, UniProt Q01959); experiment: Displacement of [3H]WIN-35428 from DAT
[9] = target: Sodium-dependent noradrenaline transporter (Homo sapiens, UniProt P23975); experiment: Displacement of [3H]nisoxetine from NET
Mus musculus [10] = experiment: Locomotor activity in ip dosed CD1 mouse in peak hour; type: functional
Mus musculus [11] = experiment: Locomotor activity in CD1 mouse assessed as stimulation at 3 mg/kg, ip after 1 hr relative to control; type: functional; conditions: route intraperitoneal
Mus musculus [12] = experiment: Locomotor activity in CD1 mouse assessed as stimulation at 3 mg/kg, ip after 2 hrs relative to control; type: functional; conditions: route intraperitoneal
Mus musculus [13] = experiment: Locomotor activity in CD1 mouse assessed as stimulation at 3 mg/kg, ip after 3 hrs relative to control; type: functional; conditions: route intraperitoneal
Mus musculus [14] = experiment: Locomotor activity in CD1 mouse assessed as stimulation at 3 mg/kg, ip after 4 hrs relative to control; type: functional; conditions: route intraperitoneal
Mus musculus [15] = experiment: Locomotor activity in CD1 mouse assessed as stimulation at 10 mg/kg, ip after 1 hr relative to control; type: functional; conditions: route intraperitoneal
Mus musculus [16] = experiment: Locomotor activity in CD1 mouse assessed as stimulation at 10 mg/kg, ip after 2 hrs relative to control; type: functional; conditions: route intraperitoneal
Mus musculus [17] = experiment: Locomotor activity in CD1 mouse assessed as stimulation at 10 mg/kg, ip after 3 hrs relative to control; type: functional; conditions: route intraperitoneal
Mus musculus [18] = experiment: Locomotor activity in CD1 mouse assessed as stimulation at 10 mg/kg, ip after 4 hrs relative to control; type: functional; conditions: route intraperitoneal
Mus musculus [19] = experiment: Locomotor activity in CD1 mouse assessed as stimulation at 30 mg/kg, ip after 1 hr relative to control; type: functional; conditions: route intraperitoneal
Mus musculus [20] = experiment: Locomotor activity in CD1 mouse assessed as stimulation at 30 mg/kg, ip after 2 hrs relative to control; type: functional; conditions: route intraperitoneal
Mus musculus [21] = experiment: Locomotor activity in CD1 mouse assessed as stimulation at 30 mg/kg, ip after 3 hrs relative to control; type: functional; conditions: route intraperitoneal
Mus musculus [22] = experiment: Locomotor activity in CD1 mouse assessed as stimulation at 30 mg/kg, ip after 4 hrs relative to control; type: functional; conditions: route intraperitoneal
Mus musculus [23] = experiment: Locomotor activity in CD1 mouse assessed as stimulation at 100 mg/kg, ip after 1 hr relative to control; type: functional; conditions: route intraperitoneal
Mus musculus [24] = experiment: Locomotor activity in CD1 mouse assessed as stimulation at 100 mg/kg, ip after 2 hrs relative to control; type: functional; conditions: route intraperitoneal
Mus musculus [25] = experiment: Locomotor activity in CD1 mouse assessed as stimulation at 100 mg/kg, ip after 3 hrs relative to control; type: functional; conditions: route intraperitoneal
Mus musculus [26] = experiment: Locomotor activity in CD1 mouse assessed as stimulation at 100 mg/kg, ip after 4 hrs relative to control; type: functional; conditions: route intraperitoneal
Mus musculus [27] = experiment: Locomotor activity in ip dosed CD1 mouse after 1 hr relative to cocaine; type: functional
[28] = target: Sodium-dependent serotonin transporter (Homo sapiens, UniProt P31645)
Description: Displacement of [3H]paroxetine from 5HTT

Mus musculus [29] = experiment: Activity in CD1 mouse assessed as hyperactivity at 10 mg/kg, ip after 4 hrs; type: functional, organism-based; design: dose 10 mg/kg
Mus musculus [30] = experiment: Activity in CD1 mouse assessed as stereotypy at 100 mg/kg, ip after 4 hrs; type: functional, organism-based; design: dose 100 mg/kg
Mus musculus [31] = experiment: Activity in CD1 mouse assessed as circling at 100 mg/kg, ip after 4 hrs; type: functional, organism-based; design: dose 100 mg/kg
Mus musculus [32] = experiment: Activity in CD1 mouse assessed as stimulation at 100 mg/kg, ip after 4 hrs; type: functional, organism-based; design: dose 100 mg/kg
Mus musculus [33] = experiment: Locomotor activity in CD1 mouse assessed as stimulation at 1 mg/kg, ip after 1 hr relative to control; type: functional; conditions: route intraperitoneal
Mus musculus [34] = experiment: Locomotor activity in CD1 mouse assessed as stimulation at 1 mg/kg, ip after 2 hrs relative to control; type: functional; conditions: route intraperitoneal
Mus musculus [35] = experiment: Locomotor activity in CD1 mouse assessed as stimulation at 1 mg/kg, ip after 3 hrs relative to control; type: functional; conditions: route intraperitoneal
Mus musculus [36] = experiment: Locomotor activity in CD1 mouse assessed as stimulation at 1 mg/kg, ip after 4 hrs relative to control; type: functional; conditions: route intraperitoneal
Rattus norvegicus [37] = experiment: Drug discrimination effect in CD Albino rat assessed as percent of rat choosing cocaine lever at 17 mg/kg, ip; type: functional; conditions: route intraperitoneal
Mus musculus [38] = experiment: Activity in CD1 mouse assessed as hind limb splay at 100 mg/kg, ip after 4 hrs; type: functional, organism-based; design: dose 100 mg/kg; conditions: Hindlimb
Mus musculus [39] = experiment: Activity in CD1 mouse assessed as convulsions at 100 mg/kg, ip after 4 hrs; type: functional, organism-based; design: dose 100 mg/kg
Mus musculus [40] = experiment: Activity in CD1 mouse assessed as tremor at 100 mg/kg, ip after 4 hrs; type: functional, organism-based; design: dose 100 mg/kg
Mus musculus [41] = experiment: Activity in CD1 mouse assessed as ataxia at 100 mg/kg, ip after 4 hrs; type: functional, organism-based; design: dose 100 mg/kg

Sequence of Sodium-dependent dopamine transporter (Q01959 whole entry): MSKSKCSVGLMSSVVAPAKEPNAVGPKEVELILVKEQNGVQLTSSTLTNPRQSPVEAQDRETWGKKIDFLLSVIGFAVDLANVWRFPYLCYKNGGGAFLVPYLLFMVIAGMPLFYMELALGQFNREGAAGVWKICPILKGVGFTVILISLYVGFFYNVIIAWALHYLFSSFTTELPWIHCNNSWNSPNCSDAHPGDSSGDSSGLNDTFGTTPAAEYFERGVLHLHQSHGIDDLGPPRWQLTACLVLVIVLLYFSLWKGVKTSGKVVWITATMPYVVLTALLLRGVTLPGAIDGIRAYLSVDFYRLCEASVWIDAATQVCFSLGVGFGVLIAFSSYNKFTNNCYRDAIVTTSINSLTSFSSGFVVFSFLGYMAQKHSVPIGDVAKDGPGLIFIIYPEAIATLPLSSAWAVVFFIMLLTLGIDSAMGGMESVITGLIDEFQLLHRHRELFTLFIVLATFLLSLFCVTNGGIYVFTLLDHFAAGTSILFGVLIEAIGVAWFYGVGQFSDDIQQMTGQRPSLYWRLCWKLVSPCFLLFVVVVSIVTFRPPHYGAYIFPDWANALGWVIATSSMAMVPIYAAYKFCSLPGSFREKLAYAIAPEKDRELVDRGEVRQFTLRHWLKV
Sequence of Sodium-dependent noradrenaline transporter (P23975 whole entry): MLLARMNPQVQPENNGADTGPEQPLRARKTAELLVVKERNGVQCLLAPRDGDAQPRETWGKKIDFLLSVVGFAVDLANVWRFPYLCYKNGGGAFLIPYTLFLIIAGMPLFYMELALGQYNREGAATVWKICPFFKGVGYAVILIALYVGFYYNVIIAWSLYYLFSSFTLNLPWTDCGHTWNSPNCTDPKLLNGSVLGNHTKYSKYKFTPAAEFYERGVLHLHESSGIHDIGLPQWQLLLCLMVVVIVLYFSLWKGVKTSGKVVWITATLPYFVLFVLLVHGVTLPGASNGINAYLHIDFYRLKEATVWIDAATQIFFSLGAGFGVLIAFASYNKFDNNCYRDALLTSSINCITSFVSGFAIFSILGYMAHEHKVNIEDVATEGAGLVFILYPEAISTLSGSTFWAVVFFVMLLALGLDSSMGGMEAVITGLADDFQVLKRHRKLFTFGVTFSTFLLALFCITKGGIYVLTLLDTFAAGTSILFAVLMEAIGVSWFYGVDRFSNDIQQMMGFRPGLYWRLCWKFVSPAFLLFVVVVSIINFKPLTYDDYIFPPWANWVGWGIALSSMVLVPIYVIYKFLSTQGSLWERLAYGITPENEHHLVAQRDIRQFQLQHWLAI
Sequence of Sodium-dependent serotonin transporter (P31645 whole entry): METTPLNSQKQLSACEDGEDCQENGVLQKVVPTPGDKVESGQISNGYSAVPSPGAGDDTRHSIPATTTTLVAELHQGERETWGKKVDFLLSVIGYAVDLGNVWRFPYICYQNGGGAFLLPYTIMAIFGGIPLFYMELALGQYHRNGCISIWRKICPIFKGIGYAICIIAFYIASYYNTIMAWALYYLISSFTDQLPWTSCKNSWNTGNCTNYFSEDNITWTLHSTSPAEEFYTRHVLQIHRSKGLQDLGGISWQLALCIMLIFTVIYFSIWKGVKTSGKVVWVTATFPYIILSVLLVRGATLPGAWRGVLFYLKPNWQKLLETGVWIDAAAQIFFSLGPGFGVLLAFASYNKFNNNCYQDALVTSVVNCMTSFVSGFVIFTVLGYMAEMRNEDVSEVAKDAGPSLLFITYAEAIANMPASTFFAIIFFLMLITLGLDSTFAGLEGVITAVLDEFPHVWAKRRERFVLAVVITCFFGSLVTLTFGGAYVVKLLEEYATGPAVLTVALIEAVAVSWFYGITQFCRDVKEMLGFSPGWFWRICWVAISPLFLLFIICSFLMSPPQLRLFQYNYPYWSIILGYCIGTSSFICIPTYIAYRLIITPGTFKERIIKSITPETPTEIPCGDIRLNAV

| SMILES | ED50 (Rattus norvegicus [1]) [mg/kg] | Activity (Rattus norvegicus [2]) [%] | Activity (Rattus norvegicus [3]) [%] | Activity (Rattus norvegicus [4]) [%] | Activity (Rattus norvegicus [5]) [%] | Activity (Rattus norvegicus [6]) [%] | IC50 [8] [nM] | ED50 (Mus musculus [10]) [mg/kg] | Activity (Mus musculus [11]) [%] | Activity (Mus musculus [12]) [%] | Activity (Mus musculus [13]) [%] | Activity (Mus musculus [14]) [%] | Activity (Mus musculus [15]) [%] | Activity (Mus musculus [16]) [%] | Activity (Mus musculus [17]) [%] | Activity (Mus musculus [18]) [%] | Activity (Mus musculus [19]) [%] | Activity (Mus musculus [20]) [%] | Activity (Mus musculus [21]) [%] | Activity (Mus musculus [22]) [%] | other results |
| --- | --- | --- | --- | --- | --- | --- | --- | --- | --- | --- | --- | --- | --- | --- | --- | --- | --- | --- | --- | --- | --- |
| COC(=O)[C@@H]1C2CCC(C[C@H]1c1ccc(I)cc1)N2C (some centres not stated) | 4.72 | 0 | 14 | 43 | 44 | 86 | 2.9 | 7.7 | 14 | -72 | 64 | -42 | 210 | 100 | 457 | 49 | 308 | 121 | 391 | 25 | Activity (Mus musculus [7]): Active; IC50 [9]: 52.4 nM; Ki [9]: 32 nM; Activity (Mus musculus [23]): 328%; Activity (Mus musculus [24]): 168%; Activity (Mus musculus [25]): 692%; Activity (Mus musculus [26]): 124%; Ratio (Mus musculus [27]): 1; IC50 [28]: 64.9 nM; Ki [28]: 5.9 nM |
| COC(=O)[C@@H]1C2CCC(C[C@H]1c1ccc(Cl)cc1)N2C (some centres not stated) | 2.55 | 25 | 25 | 67 | 67 | 100 | 3.1 | 9.1 | 49 | 64 | 135 | 38 | 340 | 322 | 373 | 11 | 868 | 1127 | 1002 | 158 | Activity (Mus musculus [29]): Active; Activity (Mus musculus [30]): Active; Activity (Mus musculus [31]): Active; Activity (Mus musculus [32]): Active; Activity (Mus musculus [23]): 487%; Activity (Mus musculus [24]): 217%; Activity (Mus musculus [25]): 1065%; Activity (Mus musculus [26]): 598% |
| COC(=O)[C@H]1C2CCC(C[C@@H]1c1ccccc1)N2C (some centres not stated) | 7.66 |  |  |  | 29 | 67 | 670 | 11.7 | -14 | -20 | -9 | -50 | 35 | 16 | -16 | -27 | 138 | 122 | 69 | 12 | Activity (Mus musculus [33]): 9%; Activity (Mus musculus [34]): 35%; Activity (Mus musculus [35]): 12%; Activity (Mus musculus [36]): -60%; Activity (Rattus norvegicus [37]): 100%; Activity (Mus musculus [31]): Active; Activity (Mus musculus [38]): Active; Activity (Mus musculus [32]): Active; Activity (Mus musculus [39]): Active; Activity (Mus musculus [40]): Active; Activity (Mus musculus [41]): Active; IC50 [9]: > 10000 nM |

From ChEMBL document CHEMBL1149262, “Monoamine transporter binding, locomotor activity, and drug discrimination properties of 3-(4-substituted-phenyl)tropane-2-carboxylic acid methyl ester isomers” (J Med Chem, 2004)
